This data set relates to rat liver. The data set is classed as in vivo. To be noted: rats after final administration, H&E, Figure 7. On the procedure:
After the final administration, all rats were euthanized, and blood and liver samples were collected. The levels of biochemical indicators ALT, AST and ALP in the blood were detected according to the kit instruction. The liver histopathology was analyzed by H&E staining. Briefly, liver tissues were fixed in 10% paraformaldehyde (for over 24 h, 4°C), paraffin-embedded, and sectioned into 5-µm slices). […]

In publication PMC12301304 (Frontiers in Pharmacology, 2025) one finds liver histopathology finding data, which are given here for one compound.

Regarding `CCC1(c2ccccc2)C(=O)NC(=O)NC1=O` [P, phenobarbital sodium], the liver histopathology finding entry was “Scattered cellular edema”.
